One block for each compound: values may come before it.
Tests used:
[1] = Biodistribution in male ddY mouse spleen administered intravenously and measured at 60 mins postinjection by gamma counter analysis; assay type: ADME, organism-based; conditions: in vivo, iv, 1 h
[2] = Biodistribution in male ddY mouse pancreas administered intravenously and measured at 2 mins postinjection by gamma counter analysis; assay type: ADME, organism-based; conditions: in vivo, iv
[3] = Biodistribution in male ddY mouse bone administered intravenously and measured at 2 mins postinjection by gamma counter analysis; assay type: ADME, organism-based, Bone element; conditions: in vivo, iv
[4] = Biodistribution in male ddY mouse lung administered intravenously and measured at 10 mins postinjection by gamma counter analysis; assay type: ADME, organism-based; conditions: in vivo, iv
[5] = Biodistribution in male ddY mouse spleen administered intravenously and measured at 30 mins postinjection by gamma counter analysis; assay type: ADME, organism-based; conditions: in vivo, iv, 0.5 h
[6] = Biodistribution in male ddY mouse kidney administered intravenously and measured at 60 mins postinjection by gamma counter analysis; assay type: ADME, organism-based; conditions: in vivo, iv, 1 h
[7] = Biodistribution in male ddY mouse liver administered intravenously and measured at 2 mins postinjection by gamma counter analysis; assay type: ADME, organism-based; conditions: in vivo, iv
[8] = Biodistribution in male ddY mouse lung administered intravenously and measured at 60 mins postinjection by gamma counter analysis; assay type: ADME, organism-based; conditions: in vivo, iv, 1 h
[9] = Biodistribution in male ddY mouse blood administered intravenously and measured at 60 mins postinjection by gamma counter analysis; assay type: ADME, organism-based; conditions: in vivo, iv, 1 h
[10] = Biodistribution in male ddY mouse blood administered intravenously and measured at 2 mins postinjection by gamma counter analysis; assay type: ADME, organism-based; conditions: in vivo, iv
[11] = Biodistribution in male ddY mouse intestine administered intravenously and measured at 60 mins postinjection by gamma counter analysis; assay type: ADME, organism-based; conditions: in vivo, iv, 1 h
[12] = Biodistribution in male ddY mouse intestine administered intravenously and measured at 10 mins postinjection by gamma counter analysis; assay type: ADME, organism-based; conditions: in vivo, iv
[13] = Biodistribution in male ddY mouse kidney administered intravenously and measured at 10 mins postinjection by gamma counter analysis; assay type: ADME, organism-based; conditions: in vivo, iv
[14] = Biodistribution in male ddY mouse brain administered intravenously and measured at 2 mins postinjection by gamma counter analysis; assay type: ADME, organism-based; conditions: in vivo, iv
[15] = Biodistribution in male ddY mouse kidney administered intravenously and measured at 30 mins postinjection by gamma counter analysis; assay type: ADME, organism-based; conditions: in vivo, iv, 0.5 h
[16] = Biodistribution in male ddY mouse pancreas administered intravenously and measured at 10 mins postinjection by gamma counter analysis; assay type: ADME, organism-based; conditions: in vivo, iv
[17] = Biodistribution in male ddY mouse intestine administered intravenously and measured at 2 mins postinjection by gamma counter analysis; assay type: ADME, organism-based; conditions: in vivo, iv
[18] = Biodistribution in male ddY mouse blood administered intravenously and measured at 10 mins postinjection by gamma counter analysis; assay type: ADME, organism-based; conditions: in vivo, iv
[19] = Biodistribution in male ddY mouse blood administered intravenously and measured at 30 mins postinjection by gamma counter analysis; assay type: ADME, organism-based; conditions: in vivo, iv, 0.5 h
[20] = Biodistribution in male ddY mouse pancreas administered intravenously and measured at 30 mins postinjection by gamma counter analysis; assay type: ADME, organism-based; conditions: in vivo, iv, 0.5 h
[21] = Biodistribution in male ddY mouse lung administered intravenously and measured at 2 mins postinjection by gamma counter analysis; assay type: ADME, organism-based; conditions: in vivo, iv
[22] = Biodistribution in male ddY mouse heart administered intravenously and measured at 10 mins postinjection by gamma counter analysis; assay type: ADME, organism-based; conditions: in vivo, iv
[23] = Biodistribution in male ddY mouse stomach administered intravenously and measured per organ at 10 mins postinjection by gamma counter analysis; assay type: ADME, organism-based; conditions: in vivo, iv
[24] = Biodistribution in male ddY mouse heart administered intravenously and measured at 30 mins postinjection by gamma counter analysis; assay type: ADME, organism-based; conditions: in vivo, iv, 0.5 h
[25] = Biodistribution in male ddY mouse heart administered intravenously and measured at 2 mins postinjection by gamma counter analysis; assay type: ADME, organism-based; conditions: in vivo, iv
[26] = Biodistribution in male ddY mouse brain administered intravenously and measured at 10 mins postinjection by gamma counter analysis; assay type: ADME, organism-based; conditions: in vivo, iv
[27] = Biodistribution in male ddY mouse intestine administered intravenously and measured at 30 mins postinjection by gamma counter analysis; assay type: ADME, organism-based; conditions: in vivo, iv, 0.5 h
[28] = Biodistribution in male ddY mouse bone administered intravenously and measured at 10 mins postinjection by gamma counter analysis; assay type: ADME, organism-based, Bone element; conditions: in vivo, iv
[29] = Biodistribution in male ddY mouse bone administered intravenously and measured at 30 mins postinjection by gamma counter analysis; assay type: ADME, organism-based, Bone element; conditions: in vivo, iv, 0.5 h
[30] = Biodistribution in male ddY mouse spleen administered intravenously and measured at 10 mins postinjection by gamma counter analysis; assay type: ADME, organism-based; conditions: in vivo, iv
[31] = Biodistribution in male ddY mouse stomach administered intravenously and measured per organ at 30 mins postinjection by gamma counter analysis; assay type: ADME, organism-based; conditions: in vivo, iv, 0.5 h
[32] = Biodistribution in male ddY mouse brain administered intravenously and measured at 30 mins postinjection by gamma counter analysis; assay type: ADME, organism-based; conditions: in vivo, iv, 0.5 h
[33] = Biodistribution in male ddY mouse lung administered intravenously and measured at 30 mins postinjection by gamma counter analysis; assay type: ADME, organism-based; conditions: in vivo, iv, 0.5 h
[34] = Biodistribution in male ddY mouse stomach administered intravenously and measured per organ at 60 mins postinjection by gamma counter analysis; assay type: ADME, organism-based; conditions: in vivo, iv, 1 h
[35] = Biodistribution in male ddY mouse bone administered intravenously and measured at 60 mins postinjection by gamma counter analysis; assay type: ADME, organism-based, Bone element; conditions: in vivo, iv, 1 h
[36] = Biodistribution in male ddY mouse pancreas administered intravenously and measured at 60 mins postinjection by gamma counter analysis; assay type: ADME, organism-based; conditions: in vivo, iv, 1 h
[37] = Biodistribution in male ddY mouse stomach administered intravenously and measured per organ at 2 mins postinjection by gamma counter analysis; assay type: ADME, organism-based; conditions: in vivo, iv
[38] = Biodistribution in male ddY mouse liver administered intravenously and measured at 10 mins postinjection by gamma counter analysis; assay type: ADME, organism-based; conditions: in vivo, iv
[39] = Biodistribution in male ddY mouse liver administered intravenously and measured at 60 mins postinjection by gamma counter analysis; assay type: ADME, organism-based; conditions: in vivo, iv, 1 h
[40] = Biodistribution in male ddY mouse brain administered intravenously and measured at 60 mins postinjection by gamma counter analysis; assay type: ADME, organism-based; conditions: in vivo, iv, 1 h
[41] = Biodistribution in male ddY mouse kidney administered intravenously and measured at 2 mins postinjection by gamma counter analysis; assay type: ADME, organism-based; conditions: in vivo, iv
[42] = Biodistribution in male ddY mouse liver administered intravenously and measured at 30 mins postinjection by gamma counter analysis; assay type: ADME, organism-based; conditions: in vivo, iv, 0.5 h
[43] = Biodistribution in male ddY mouse heart administered intravenously and measured at 60 mins postinjection by gamma counter analysis; assay type: ADME, organism-based; conditions: in vivo, iv, 1 h
[44] = Biodistribution in male ddY mouse spleen administered intravenously and measured at 2 mins postinjection by gamma counter analysis; assay type: ADME, organism-based; conditions: in vivo, iv
Homo sapiens = organism: Homo sapiens; assay: Selectivity ratio of IC50 for recombinant human OX2R expressed in CHO-S cells to IC50 for recombinant human OX1R expressed in CHO-S cells; assay type: cell-based; conditions: tested as the 11C-labelled form

Drug uptake [1]: 0.45 % ID/g
Drug uptake [2]: 8.33 % ID/g
Drug uptake [3]: 2.51 % ID/g
Drug uptake [4]: 5.68 % ID/g
Drug uptake [5]: 1.43 % ID/g
Drug uptake [6]: 1.64 % ID/g
Drug uptake [7]: 17.2 % ID/g
Drug uptake [8]: 0.7 % ID/g
Drug uptake [9]: 0.64 % ID/g
Drug uptake [10]: 4.74 % ID/g
Drug uptake [11]: 15.3 % ID/g
Drug uptake [12]: 8.75 % ID/g
Drug uptake [13]: 7.95 % ID/g
Drug uptake [14]: 3.81 % ID/g
Drug uptake [15]: 4.53 % ID/g
Drug uptake [16]: 4.87 % ID/g
Drug uptake [17]: 3.5 % ID/g
Drug uptake [18]: 3.87 % ID/g
Drug uptake [19]: 2.2 % ID/g
Drug uptake [20]: 1.47 % ID/g
Drug uptake [21]: 9.43 % ID/g
Drug uptake [22]: 10.2 % ID/g
Drug uptake [23]: 4.17 %ID
Drug uptake [24]: 2.19 % ID/g
Drug uptake [25]: 9.03 % ID/g
Drug uptake [26]: 1.49 % ID/g
Drug uptake [27]: 11.6 % ID/g
Drug uptake [28]: 8.73 % ID/g
Drug uptake [29]: 25.8 % ID/g
Drug uptake [30]: 4.09 % ID/g
Drug uptake [31]: 1.58 %ID
Drug uptake [32]: 0.39 % ID/g
Drug uptake [33]: 2.6 % ID/g
Drug uptake [34]: 1.97 %ID
Drug uptake [35]: 37.8 % ID/g
Drug uptake [36]: 0.53 % ID/g
Drug uptake [37]: 2.38 %ID
Drug uptake [38]: 30.6 % ID/g
Drug uptake [39]: 4.12 % ID/g
Drug uptake [40]: 0.15 % ID/g
Drug uptake [41]: 11.9 % ID/g
Drug uptake [42]: 10.1 % ID/g
Drug uptake [43]: 0.7 % ID/g
Drug uptake [44]: 4.4 % ID/g
SMILES: Cc1ccc(-n2nccn2)c(C(=O)N2CCCN(c3nc4cc([18F])ccc4s3)C[C@@H]2C)c1

SMILES: COc1ccnc(N2CCC3(CCN(Cc4cn(C)c5ccccc45)C(=O)C3)CC2)n1
Ratio IC50 (Homo sapiens): 5.6
